These results are taken from patent US20230374143A1, “A SORTILIN ANTAGONIST FOR USE IN THE PREVENTION OR TREATMENT OF HEARING LOSS” (Insusense ApS, priority 2020, published 2023).

Experiment [1] deals with T1, hSortilin (Homo sapiens, UniProt Q99523).
T1 sequence (Q99523 78-831): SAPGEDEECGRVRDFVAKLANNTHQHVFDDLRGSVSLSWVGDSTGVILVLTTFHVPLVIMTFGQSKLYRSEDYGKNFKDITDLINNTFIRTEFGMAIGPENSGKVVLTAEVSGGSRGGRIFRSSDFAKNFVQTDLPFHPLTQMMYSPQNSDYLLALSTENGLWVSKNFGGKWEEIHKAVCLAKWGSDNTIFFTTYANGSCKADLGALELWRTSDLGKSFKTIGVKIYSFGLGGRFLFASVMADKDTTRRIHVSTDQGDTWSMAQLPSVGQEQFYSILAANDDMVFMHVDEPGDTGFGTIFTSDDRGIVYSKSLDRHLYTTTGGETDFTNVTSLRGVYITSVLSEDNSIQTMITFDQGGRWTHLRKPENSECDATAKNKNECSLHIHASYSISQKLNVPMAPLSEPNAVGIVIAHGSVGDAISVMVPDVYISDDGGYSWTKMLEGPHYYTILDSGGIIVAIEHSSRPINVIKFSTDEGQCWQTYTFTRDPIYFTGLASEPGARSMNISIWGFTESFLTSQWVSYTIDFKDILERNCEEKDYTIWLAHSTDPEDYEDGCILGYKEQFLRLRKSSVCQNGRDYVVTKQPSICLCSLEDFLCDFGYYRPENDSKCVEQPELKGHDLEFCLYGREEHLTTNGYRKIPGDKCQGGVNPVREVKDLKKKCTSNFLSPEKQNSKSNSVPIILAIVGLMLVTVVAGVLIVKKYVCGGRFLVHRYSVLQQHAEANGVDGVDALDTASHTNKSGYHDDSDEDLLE
The experiment can be described thus: Neurotensin SPA assay with [125I]-Neurotensin. The experiment is classed as binding. The text has this: All values reported are average of at least 4 determinations.^8

Experiment [2] concerns the target T1, hSortilin. Conditions: expected value, compared with the [125I]-Neurotensin SPA result; cited from earlier work.

The structures appear in SMILES notation. Like-named read-outs stand apart in the source and are kept apart here.

One may read the IC50 as the point on the concentration scale where inhibition reaches its midpoint. Consider `CC(C)(C)CC[C@H](NC(=O)c1ccc(Oc2ccccc2)nc1)C(=O)O` (racemic) [*Example 44], for which the IC50 in experiment [1] ([125I]-Neurotensin, read-out: Observed IC50) is 120 nM; in experiment [2] it was 20 nM. Further, in experiment [1] (observed versus expected IC50), the “Fold difference between calculated and expected” value was 6.
